Our source for the TGI and GI50 values is PubChem BioAssay (NCI).

Some test systems named below: 786-0 renal; A498 renal; CAKI-1 renal; EKVX NSCLC; NCI-H522 lung; SW-620 colon; UACC-257 melanoma; IGROV1 ovarian; NCI/ADR-RES ovarian.
Common to all, as to test: NCI tumour cell line growth inhibition, 48 h

Structures are written as SMILES.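 Protocol summary: plate cells (96-well), add compound at 5 concentrations, incubate 48 h, interpolate endpoints linearly. GI50 is the concentration that inhibits growth by half. TGI: total growth inhibition.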

For the molecule `N#CC(c1ccc(Cl)cc1)c1cccc(Cl)n1` (stereo not drawn), the TGI in the assay with 786-0 renal, with A498 renal, in the assay on CAKI-1 renal, in the assay with EKVX NSCLC, in the assay with NCI-H522 lung and in the assay on SW-620 colon was greater than 100 µM in each case. In the assay on UACC-257 melanoma, this molecule had a TGI greater than 100 µM.

As for `CO/C=C/c1cc2c(cc1C(OC)OC)OCO2`, the TGI with 786-0 renal, in the assay on CAKI-1 renal, in the assay on EKVX NSCLC, in the assay with IGROV1 ovarian, in the assay with NCI-H522 lung and in the assay with SW-620 colon was greater than 100 µM in each case. Further, the TGI with UACC-257 melanoma is greater than 100 µM.

With `Cc1ccc(C2=NN(C)COC2C(F)(F)F)cc1` (stereo not drawn), the TGI in the assay with 786-0 renal, with CAKI-1 renal, in the assay on EKVX NSCLC, in the assay with IGROV1 ovarian, in the assay on NCI-H522 lung and in the assay on SW-620 colon was greater than 100 µM each time. In the assay with UACC-257 melanoma, the TGI was greater than 100 µM.

Turning to `CCC12CC[C@H](C#N)N3CCc4c(n(c5ccccc45)C(=O)C1)C32` (stereo partly drawn), the TGI in the assay on 786-0 renal is 34.1 µM; in the assay with A498 renal, 35.1 µM; in the assay on CAKI-1 renal, 34.3 µM; in the assay with EKVX NSCLC it was 64.1 µM; with IGROV1 ovarian it was 63.3 µM; in the assay on SW-620 colon, 51.7 µM. Besides, in the assay with UACC-257 melanoma, the TGI was determined as 32.9 µM.

Take `O=C(O/N=C1/CCC/C1=C\c1ccccc1)c1ccccc1`: the TGI with 786-0 renal, in the assay on A498 renal, with CAKI-1 renal, in the assay on EKVX NSCLC, with IGROV1 ovarian and with NCI-H522 lung was greater than 100 µM throughout. Besides, the TGI in the assay on SW-620 colon and in the assay with UACC-257 melanoma was greater than 100 µM in each case.

On to `COc1ccc(C2c3cc4c(cc3OC(O)(CO)C2C(=O)O)OCO4)c(OC)c1OC` (stereo not drawn) (tested in a mixture with another compound), for which the TGI in the assay with 786-0 renal, in the assay with CAKI-1 renal, with EKVX NSCLC, in the assay on IGROV1 ovarian, in the assay on SW-620 colon and with UACC-257 melanoma was greater than 100 µM in each case.

In the case of `CC1CC(C)C(=O)C(C(=O)CC2CC(=O)NC2=O)C1` (stereo not drawn), the TGI in the assay on 786-0 renal, in the assay with A498 renal, in the assay with CAKI-1 renal, in the assay on EKVX NSCLC, in the assay with IGROV1 ovarian and with NCI-H522 lung was greater than 100 µM each time. The TGI in the assay with SW-620 colon and in the assay on UACC-257 melanoma was greater than 100 µM in each case.

Turning to `N#Cc1c(C(N)=O)ncn1Cc1ccccc1`, the TGI in the assay on 786-0 renal, with A498 renal, with CAKI-1 renal, in the assay with EKVX NSCLC, in the assay with IGROV1 ovarian and with NCI-H522 lung was greater than 100 µM each time. Further, the TGI with SW-620 colon and in the assay with UACC-257 melanoma was greater than 100 µM in each case.

Take `Cn1cc(C(=O)/C(Cl)=C(\Cl)C(=O)O)c2ccccc21`: the TGI in the assay on 786-0 renal, in the assay on A498 renal, in the assay on CAKI-1 renal, in the assay with EKVX NSCLC, with IGROV1 ovarian and in the assay on SW-620 colon was greater than 100 µM in each case. In addition, in the assay with UACC-257 melanoma, the TGI was greater than 100 µM.

In the case of `O=C(Nc1ccc(N=Nc2ccccc2)cc1)Sc1ccccc1C(=O)O`, the TGI in the assay on 786-0 renal was greater than 100 µM; in the assay on A498 renal, greater than 100 µM; in the assay with CAKI-1 renal it was greater than 100 µM; in the assay on EKVX NSCLC, greater than 100 µM; in the assay with IGROV1 ovarian, 2.48 µM; in the assay on NCI-H522 lung, greater than 100 µM. Besides, the TGI in the assay on SW-620 colon and in the assay with UACC-257 melanoma was greater than 100 µM in each case.

Consider `CC(=O)Oc1cc2c(=O)oc3c(OC(C)=O)c(OC(C)=O)c(OC(C)=O)c4c(=O)oc(c1OC(C)=O)c2c34`, for which the TGI in the assay on 786-0 renal, with A498 renal, in the assay on CAKI-1 renal, with EKVX NSCLC, in the assay on IGROV1 ovarian and in the assay on NCI-H522 lung was greater than 100 µM in each case. Also, the TGI with SW-620 colon and in the assay on UACC-257 melanoma was greater than 100 µM each time.

With `COc1cc2c(cc1OCCCCCN1CCN(c3cc(=O)oc4c(C)c(OC)ccc34)CC1)N=C[C@@H]1CCCN1C2=O`, the GI50 is less than 0.01 µM in the assay with 786-0 renal; less than 0.0127 µM in the assay on A498 renal; 0.083 µM with CAKI-1 renal; 0.174 µM with EKVX NSCLC; less than 0.01 µM in the assay on IGROV1 ovarian; less than 0.01 µM in the assay with NCI-H522 lung. Besides, the GI50 with NCI/ADR-RES ovarian is 1.55 µM; with SW-620 colon, less than 0.0108 µM. The TGI in the assay with A498 renal is 0.0289 µM; in the assay on CAKI-1 renal, 0.537 µM; with EKVX NSCLC it was 4.07 µM; in the assay on IGROV1 ovarian it was 0.0251 µM; with NCI-H522 lung it was less than 0.0352 µM; with NCI/ADR-RES ovarian it was 8.25 µM. In the assay with SW-620 colon, this molecule displayed a TGI of 4.26 µM.

Regarding `CC(=O)[CH-]C(C)=O.CC(=O)[CH-]C(C)=O.CC(=O)[CH-]C(C)=O.[Cl-].[Hf+4]`, the GI50 with 786-0 renal, in the assay on A498 renal, with CAKI-1 renal, with EKVX NSCLC, in the assay on IGROV1 ovarian and with NCI-H522 lung was greater than 100 µM each time. Further, the GI50 in the assay on SW-620 colon and in the assay with UACC-257 melanoma was greater than 100 µM in each case. The TGI in the assay with 786-0 renal, in the assay on A498 renal, in the assay on CAKI-1 renal, in the assay with EKVX NSCLC, in the assay with IGROV1 ovarian and in the assay with NCI-H522 lung was greater than 100 µM throughout. Moreover, the TGI in the assay with SW-620 colon and in the assay on UACC-257 melanoma was greater than 100 µM each time.

`C/C(=N\[N+](C)(C)C)C(c1ccccc1)C1(c2ccccc2)C(c2ccccc2)=C1c1ccccc1` (stereo not drawn): the TGI in the assay on 786-0 renal, with A498 renal, in the assay on CAKI-1 renal, in the assay with EKVX NSCLC, with IGROV1 ovarian and with NCI-H522 lung was greater than 100 µM in each case. Also, the TGI with SW-620 colon and in the assay on UACC-257 melanoma was greater than 100 µM in each case.

For `Cc1ccc(NC(=O)/C(=N/NC(=O)CC#N)C2C(=O)N(c3ccccc3)N=C2N)cc1C` (stereo not drawn), the TGI in the assay with 786-0 renal, with A498 renal, with CAKI-1 renal, with EKVX NSCLC, in the assay on IGROV1 ovarian and with NCI-H522 lung was greater than 100 µM each time. Further, the TGI in the assay with SW-620 colon and with UACC-257 melanoma was greater than 100 µM in each case.

Regarding `NC1=NN(c2ccccc2)C(=O)C1C(=O)C(=O)Nc1cccc(C(F)(F)F)c1` (stereo not drawn), the TGI with 786-0 renal, in the assay with A498 renal, in the assay with CAKI-1 renal, with EKVX NSCLC, in the assay on IGROV1 ovarian and in the assay with NCI-H522 lung was greater than 100 µM in each case. Further, the TGI in the assay on SW-620 colon and in the assay on UACC-257 melanoma was greater than 100 µM each time.

With `O=C(/C=C\c1cccc2ccccc12)c1ccc(Br)cc1`, the TGI in the assay with 786-0 renal was 33.7 µM; with A498 renal, greater than 100 µM; with CAKI-1 renal it was greater than 100 µM; in the assay with EKVX NSCLC, 52.1 µM; in the assay on IGROV1 ovarian, 46.1 µM; in the assay on NCI-H522 lung, 35.3 µM. Moreover, the TGI in the assay on SW-620 colon turned out to be 24.4 µM; in the assay with UACC-257 melanoma, 51.9 µM.

As for `O[C@H]1[C@H]2[C@H](O)CCCN2C[C@H]1O`, the TGI in the assay with 786-0 renal, with A498 renal, with CAKI-1 renal, with EKVX NSCLC, in the assay with IGROV1 ovarian and with NCI-H522 lung was greater than 100 µM each time. Further, the TGI in the assay with SW-620 colon and in the assay on UACC-257 melanoma was greater than 100 µM in each case.

With `C/C=C/CP(=O)(c1ccccc1)c1ccccc1`, the TGI with 786-0 renal, in the assay with A498 renal, in the assay with EKVX NSCLC, in the assay on IGROV1 ovarian, with NCI-H522 lung and in the assay with SW-620 colon was greater than 100 µM throughout. Further, the TGI in the assay on UACC-257 melanoma is greater than 100 µM.

As to `NC(=S)N/N=C1\C(=O)N(c2cccc([N+](=O)[O-])c2)C(=O)C1C(=O)Nc1cccc([N+](=O)[O-])c1` (stereo not drawn), the TGI with 786-0 renal, with A498 renal, with CAKI-1 renal, with EKVX NSCLC, in the assay with IGROV1 ovarian and in the assay on NCI-H522 lung was greater than 100 µM each time. For the same molecule, the TGI with SW-620 colon and in the assay on UACC-257 melanoma was greater than 100 µM in each case.

`CC1(C)OC(=O)C=C(O)O1.CC1(C)OC(=O)C=C(O)O1.CCO.Oc1ccc2c(c1)CCC2.[Ti]`: the GI50 in the assay with 786-0 renal, with A498 renal, with CAKI-1 renal, with EKVX NSCLC, in the assay on IGROV1 ovarian and in the assay on NCI-H522 lung was greater than 100 µM each time. In addition, the GI50 in the assay with SW-620 colon and with UACC-257 melanoma was greater than 100 µM throughout. In addition, the TGI in the assay on 786-0 renal, with A498 renal, in the assay on CAKI-1 renal, in the assay with EKVX NSCLC, in the assay with IGROV1 ovarian and in the assay with NCI-H522 lung was greater than 100 µM throughout. The TGI in the assay with SW-620 colon and in the assay on UACC-257 melanoma was greater than 100 µM each time.
